From patent publication US20090312237A1, “REGULATING FAT AND CARBOHYDRATE OXIDATION IN MUSCLE TISSUE COMPRISING CONTROLLING GARNITINE CONTENT IN MUSCLE” (THE UNIVERSITY OF NOTTINGHAM, priority 2006, published 2009)

Tests used:
Format in all cases: in vivo, human
[1] = Euglycaemic hyperinsulinaemic clamp with intravenous L-carnitine infusion: serum insulin and whole body glucose disposal; conditions: for whole body glucose disposal: mean±SEM
Procedure: (§1) Seven healthy, non-vegetarian young men (age 22.4±1.5 yr, body mass 84.3±5.0 kg, body mass index […]) participated in the study. Each subject reported to the laboratory at 8 am on two occasions, separated by a 2-week “wash out” period, and voided their bladder. All subjects had abstained from carnitine containing foods, alcohol, and strenuous exercise for the previous 24 hours. On arrival, subjects were asked to rest in a supine position on a bed while a cannula was inserted retrogradely in to a superficial vein on the dorsal surface of the non-dominant hand. This hand was kept in a hand-warming unit (air temperature 50-55° C.) to arterialize the venous drainage of the hand, and a saline drip was attached to keep the cannula patent. A second cannula was placed in an antecubital vein in the non-dominant forearm for the infusion of insulin and glucose, and a third cannula was inserted into an antecubital vein in the opposite arm for infusion of L-carnitine.
(§2) On each experimental visit, a 6 hour (h) euglycaemic hyperinsulinaemic insulin (human Actrapid, Novo Nordisk, Denmark) clamp was performed, whilst maintaining a fasting blood glucose concentration of 4.47±0.01 mmol·l^−1. The insulin clamp began at t=0 at a rate of 105 mlU·m^−2·min^−1 with the aim of achieving steady state hyperinsulinaemic (˜150 mlU·l^−1) serum insulin concentration throughout each visit. […]
(§3) During each experimental visit, 1 ml of arterialized venous (a-v) blood was obtained every 5 min for monitoring blood glucose concentration (YSI 2300 STATplus, Yellow Springs Instruments, Ohio). […] These samples were then stored at −80° C. and analyzed at a later date for free fatty acid (FFA) concentration, using an enzymatic-colorimetric assay kit (NEFA C kit, WAKO Chemicals, Germany), and total carnitine (TC) concentration, using the radioenzymatic assay described previously by Cederblad et al (1982). […] Insulin was measured in these samples at a later date with a radioammunoassy kit (Coat-a-Count Insulin, DPC, Ca, USA). […]

[2] = Plasma free fatty acid (FFA) concentration during L-carnitine infusion with insulin clamp; conditions: not significantly different from CON
Procedure: Seven healthy, non-vegetarian young men (age 22.4±1.5 yr, body mass 84.3±5.0 kg, body mass index […]) participated in the study. Each subject reported to the laboratory at 8 am on two occasions, separated by a 2-week “wash out” period, and voided their bladder. All subjects had abstained from carnitine containing foods, alcohol, and strenuous exercise for the previous 24 hours. On arrival, subjects were asked to rest in a supine position on a bed while a cannula was inserted retrogradely in to a superficial vein on the dorsal surface of the non-dominant hand. This hand was kept in a hand-warming unit (air temperature 50-55° C.) to arterialize the venous drainage of the hand, and a saline drip was attached to keep the cannula patent. […]
as §3

[3] = Skeletal muscle carnitine content (vastus lateralis biopsy, radioenzymatic)
Procedure: as §1
(§4) On each experimental visit, a 6 hour (h) euglycaemic hyperinsulinaemic insulin (human Actrapid, Novo Nordisk, Denmark) clamp was performed, whilst maintaining a fasting blood glucose concentration of 4.47±0.01 mmol·l^−1. The insulin clamp began at t=0 at a rate of 105 mlU·m^−2·min^−1 with the aim of achieving steady state hyperinsulinaemic (˜150 mlU·l^−1) serum insulin concentration throughout each visit. Following a 1 hour equilibration period, a 5 hour intravenous infusion of 60 mM L-carnitine (CARN) (Lonza Ltd, Basel, Switzerland) or the equivalent volume of saline (CON) began, in randomised manner, in conjunction with the insulin clamp. At the onset of L-carnitine infusion a bolus dose of 15 mg·kg^−1 was administered over 10 minutes (min) in order to rapidly reach a supraphysiological plasma concentration of ˜500 μmol·l^−1. This was followed by a constant infusion at 10 mg·kg^−1·h^−1 for the next […] to maintain hypercarnitinaemia. At t=6 h, the insulin and L-carnitine infusions were stopped, whereas the glucose infusion was continued for approximately 80 min in order to stabilise blood glucose concentration. During this time, on each visit, subjects were fed the same standardised, carnitine-free meal.
(§5) Muscle biopsy samples were obtained from the vastus lateralis muscle immediately before and after each insulin clamp, and the following morning, using the percutaneous needle biopsy technique, and were snap frozen in liquid nitrogen less than 5 seconds after removal from the limb. One portion of the sample was subsequently freeze-dried and stored at −80° C., and the remainder was stored “wet” in liquid nitrogen. After removal of visible blood and connective tissue, the freeze-dried muscle samples were powdered, and free carnitine (FC), acetylcarnitine (AC), long-chain acylcarnitine (LCAC), and long-chain acyl-CoA (LCACoA) contents were determined radioenzymatically using a modified version of the radioenzymatic method of Cederblad et al (1990). Values were subsequently summed in order to calculate muscle TC. To reduce the variance in non-muscle constituents, muscle carnitine content was adjusted for the highest total creatine content from each pair of samples. Total creatine was calculated as the sum of free creatine and phosphocreatine content determined spectrophotometrically using the method of Harris et al (1974). Muscle glycogen, glucose-6-phosphate (G-6-P), and lactate content was also determined using a modified version of the spectrophotometric method of Harris et al (1974).
(§6) A two-way ANOVA (time and treatment effects; GraphPad Prism 4.02, GraphPad Software Inc, CA) was performed to locate differences in serum insulin, plasma carnitine, plasma FFA, and blood glucose concentrations as well as muscle PDC activity and carnitine, long-chain acyl-CoA, glycogen, lactate, and glucose-6-phosphate content. When a significant main effect was detected, data were further analysed with Student's paired t tests using the Bonferroni correction. […]

[4] = system: pyruvate dehydrogenase complex (PDC); experiment: Muscle pyruvate dehydrogenase complex (PDC) activity in biopsy samples; conditions: for post infusion PDC activity less than CON: CARN vs CON, P<0.05; for muscle PDC activity: post infusion/clamp
Procedure: as §1, §2
Muscle biopsy samples were obtained from the vastus lateralis muscle immediately before and after each insulin clamp, and the following morning, using the percutaneous needle biopsy technique, and were snap frozen in liquid nitrogen less than 5 seconds after removal from the limb. […] After removal of visible blood and connective tissue, the freeze-dried muscle samples were powdered, and free carnitine (FC), acetylcarnitine (AC), long-chain acylcarnitine (LCAC), and long-chain acyl-CoA (LCACoA) contents were determined radioenzymatically using a modified version of the radioenzymatic method of Cederblad et al (1990). […] Total creatine was calculated as the sum of free creatine and phosphocreatine content determined spectrophotometrically using the method of Harris et al (1974). Muscle glycogen, glucose-6-phosphate (G-6-P), and lactate content was also determined using a modified version of the spectrophotometric method of Harris et al (1974).
The remainder of the frozen muscle was used to determine PDC activity as previously described (Constantin-Teodosiu et al, 1991). Briefly, the activity of PDC in its dephosphorylated active form (PDCa) was assayed in a buffer containing NaF and dichloroacetate (DCA) and was expressed as rate of acetyl-CoA formation (mmol·min^1·(kg wet muscle)^−1 or nmol·min^1·(mg protein)^−1) at 37° C. Protein concentrations were determined using the method of Peterson (1977). […]

[5] = Muscle metabolites (glycogen, lactate, glucose-6-phosphate, long-chain acyl-CoA) in biopsy samples; conditions: for muscle LCACoA content greater than CON: following morning (24 h), CARN vs CON, P<0.05
Procedure: as §1, §4, §5, §6

C[N+](C)(C)C[C@H](O)CC(=O)[O-] [L-carnitine]
whole body glucose disposal ([1]; 80 min recovery period following the clamp): 37.2 ± 3.5 g
whole body glucose disposal ([1]; over the 6 h clamp, n=7): 316.8 ± 15.0 g
total amount of glucose infused ([1]; whole visit (CON approximately 330 g)): ~350 g
plasma FFA concentration ([2]; by 24 h): 0.19 ± 0.02 mmol/L
plasma FFA concentration ([2]; maintained during the insulin clamp, basal 0.30±0.04): 0.046 ± 0.01 mmol/L
skeletal muscle total carnitine (TC) content ([3]; 24 h (following morning), not significantly different from pre infusion value): 25.1±2.2 mmol·(kg dm)^−1
muscle free carnitine (FC) overnight ([3]; 24 h after CARN infusion visit): retuning to basal
skeletal muscle total carnitine (TC) content ([3]; after 5 h L-carnitine infusion during hyperinsulinaemia, pre infusion 22.5±2.0, P<0.01): 26.6±1.6 mmol·(kg dm)^−1
change in muscle acetyl carnitine (AC) ([3]; during the CARN infusion visit): no change
increase in muscle free carnitine (FC) ([3]; during the CARN infusion visit, P<0.05): 17%
skeletal muscle long chain acyl carnitine ([3]; following infusion visit): unchanged
increase in skeletal muscle TC ([3]; post vs pre 5 h L-carnitine infusion during hyperinsulinaemia): 15%
post infusion PDC activity less than CON [4]: 30%
post infusion PDC activity less than CON ([4]; listed as CARN): 31%
muscle PDC activity ([4]; pre 0.43±0.07, P<0.01): 0.74±0.06 mmol·min^−1·(kg wm)^−1
muscle PDC activity ([4]; pre 4.2±1.6): 4.1±0.9 nmol·min^−1·(mg protein)^−1
muscle glycogen content ([5]; 24 h after commencement of the insulin infusion, P<0.001 vs pre, P<0.01 vs CON): 736±24 mmol·(kg dm)^−1
difference in whole body muscle glycogen content between CON and CARN visits ([5]; assuming skeletal muscle contributes to 40% of total body mass): 250 g
skeletal muscle glucose-6-phosphate content ([5]; during each visit): No significant differences
increase in muscle glycogen content compared with CON ([5]; following an overnight fast (24 h)): 30%
muscle LCACoA content ([5]; following morning (24 h) in the CARN visit): returned to basal
muscle LCACoA content greater than CON [5]: 40%
muscle LCACoA content greater than CON ([5]; listed as CARN): 39%
skeletal muscle lactate content ([5]; following the CARN infusion visit (CON increased 56%)): unchanged
decrease in muscle lactate content ([5]; post infusion, 6 hour clamp): 40%
muscle glycogen content ([5]; post infusion, resting 487±23, P<0.01): 651±37 mmol·(kg dm)^−1
